Read-outs that look alike come from different tables or passages of the source.
Key:
[1] = test system: unstimulated blood (BL); assay: Integrated luminol-dependent chemiluminescence of unstimulated blood; assay type: cell-based, human; conditions: 2.5 mg/ml, mean ± SE from 16 samples
Description: (§1) Antioxidant activity of SDG, SECO, ED, EL and vitamin E (alpha-tochopherol phosphate) was measured using the ability of these compounds to reduce the chemiluminescence of activated PMNLs [polymorphonuclear leukocytes chemiluminescence (PMNL-CL)]. Activated polymorphonuclear leukocytes produce superoxide anion (O2^−), hydrogen peroxide (H2O2), hydroxyl radical (.OH) and singlet oxygen (^1O2). Chemiluminescence is amplified by luminol, which is converted to an excited aminophthalate ion in the presence of oxidizing species like O2^−, H2O2, .OH and ^1O2. Luminol-dependent CL reflects the amount of activated oxygen species generated from activated phagocytes, thus, this method can be used to monitor the reactive oxygen species produced by PMNLs. Agents which scavenge O2^−, H2O2, .OH and ^1O2 would reduce PMNL-CL. The SDG, SECO, ED and EL were all obtained from Agriculture and Agri-Food Canada, Saskatoon, Saskatchewan.
Venous blood from healthy subjects, after their informed consent, was collected in ethylenediamine tetraacetic acid (EDTA)-containing tubes for PMNL counts, and PMNL-CL. PMNL and WBC counts were made using Technicon H6000 system (Technicon Instruments, Tarrytown, N.Y.). PMNL-CL a measure of reactive oxygen species produced by PMNLs was measured by a method described in Prasad et al., Effect of polymorphonuclear leukocyte-derived oxygen free radicals and hypochlorous acid or cardiac function and some biochemical parameters, Am. Heart J. 119:538-550, 1990. Blood (0.05 ml) was added to a glass tube containing Hank's balanced salt solution (HBSS) buffer (pH 7.40) and luminol at a final concentration of 10^−4 M. To assess the ability of various test materials in the varying amounts (1.0, 2.5, 5.0 and 10 mg/ml) in the powder form, were each added to the test tube containing blood, shaken well and incubated for 15 minutes at room temperature. The final volume of the mixture in these tubes was 0.5 ml. All the test tubes were placed in a luminometer for 5 min at 37° C., and phagocytosis was initiated by the addition of 0.1 ml (10 mg/ml) of opsonized zymosan prepared by previously described method (Prasad et al., 1990). The chemiluminescence was monitored with an Auto Lumat, LB953 luminometer (Egg Berthold, Berthold Analytical Instrument Inc., 472 Amherst Street, Nashua, N.H., 03063) for 3 seconds every 2 or 3 minutes (depending on the sample number) for a period of 60 minutes. The integrated area under the curve gives the total luminal-dependent chemiluminescent response during the period of monitoring, which represents the oxygen derived CL. […]
The results are expressed as mean±SE and n=sample size. […]

[2] = test system: zymosan-stimulated polymorphonuclear leukocytes; assay: Luminol-dependent chemiluminescence of zymosan-stimulated PMNLs in blood (PMNL-CL); assay type: cell-based, human; conditions: for inhibition at 1000 µg/mL / inhibition at 2500 µg/mL / inhibition at 5000 µg/mL: Homo sapiens, Leukocyte; for antioxidant potency as compared to vitamin E: ratio of inhibition of PMNL-CL at 2.5 mg/ml, relative to vitamin E
Description: as §1
Venous blood from healthy subjects, after their informed consent, was collected in ethylenediamine tetraacetic acid (EDTA)-containing tubes for PMNL counts, and PMNL-CL. PMNL and WBC counts were made using Technicon H6000 system (Technicon Instruments, Tarrytown, N.Y.). PMNL-CL a measure of reactive oxygen species produced by PMNLs was measured by a method described in Prasad et al., Effect of polymorphonuclear leukocyte-derived oxygen free radicals and hypochlorous acid or cardiac function and some biochemical parameters, Am. Heart J. 119:538-550, 1990. Blood (0.05 ml) was added to a glass tube containing Hank's balanced salt solution (HBSS) buffer (pH 7.40) and luminol at a final concentration of 10^−4 M. To assess the ability of various test materials in the varying amounts (1.0, 2.5, 5.0 and 10 mg/ml) in the powder form, were each added to the test tube containing blood, shaken well and incubated for 15 minutes at room temperature. The final volume of the mixture in these tubes was 0.5 ml. All the test tubes were placed in a luminometer for 5 min at 37° C., and phagocytosis was initiated by the addition of 0.1 ml (10 mg/ml) of opsonized zymosan prepared by previously described method (Prasad et al., 1990). The chemiluminescence was monitored with an Auto Lumat, LB953 luminometer (Egg Berthold, Berthold Analytical Instrument Inc., 472 Amherst Street, Nashua, N.H., 03063) for 3 seconds every 2 or 3 minutes (depending on the sample number) for a period of 60 minutes. The integrated area under the curve gives the total luminal-dependent chemiluminescent response during the period of monitoring, which represents the oxygen derived CL. The difference in the integrated area under zymosan-activated in the absence and in the presence of various compounds under investigation is designated as particular compound inhibitable oxygen derived radical CL. The unit for chemiluminescence is in counts per minute (cpm). The integrated area under the curve is in cpm.m. The unit for chemiluminescence is cpm.m.10^−6 PMNLs because the chemiluminescence is expressed in terms of 10^−6 PMNL counts. The peak chemiluminescence is cpm 10^−6 PMNLs.
The results are expressed as mean±SE and n=sample size. One-way Analysis of Variance (ANOVA) followed by Scheffe test was used to derive differences between different groups. A “p” value of less than 0.05 was considered significant.

[3] = 1.0 mg/ml, concentration-response (FIGS. 4-8)
[4] = 2.5 mg/ml, concentration-response (FIGS. 4-8), read-out: inhibition of zymosan-stimulated PMNL-CL
[5] = 5.0 mg/ml, concentration-response (FIGS. 4-8)
[6] = zymosan-stimulated, 2.5 mg/ml, comparison experiment (FIG. 3), read-out: percentage inhibition of PMNL-CL
[7] = 2.5 mg/ml, concentration-response (FIGS. 4-8)
[8] = zymosan-stimulated, 2.5 mg/ml, comparison experiment (FIG. 3)
[9] = 10.0 mg/ml, concentration-response (FIGS. 4-8)

Row | Compound | Integrated CL of unstimulated blood (BL) in the presence of compound [1] | inhibition at 1000 µg/mL [2, 3] | inhibition at 2500 µg/mL [2, 4] | inhibition at 5000 µg/mL [2, 5] | inhibition at 2500 µg/mL [2, 6] | antioxidant potency as compared to vitamin E [2] | antioxidant potency relative to SDG (times more potent than SDG) [2] | inhibition of zymosan-stimulated PMNL-CL [2, 3] | inhibition of zymosan-stimulated PMNL-CL [2, 7] | inhibition of zymosan-stimulated PMNL-CL [2, 5] | percentage inhibition of PMNL-CL [2, 8] | inhibition of zymosan-stimulated PMNL-CL [2, 9] | effect on zymosan-stimulated PMNL-CL (in words) ([2]; 1.0 mg/ml)
1 | O=C1OC[C@H](Cc2cccc(O)c2)[C@H]1Cc1cccc(O)c1 [EL, enterolactone] | 2.177 ± 0.138 ×10^6 cpm · m · 10^−6 PMNLs | 81% | 86% | 83% | 81.6% | 4.35 times | 3.43 times | – | – | – | – | – | –
2 | COc1cc(C[C@@H](CO[C@@H]2O[C@H](CO)[C@@H](O)[C@H](O)[C@H]2O)[C@H](CO[C@@H]2O[C@H](CO)[C@@H](O)[C@H](O)[C@H]2O)Cc2ccc(O)c(OC)c2)ccc1O [SDG, secoisolariciresinol diglucoside, reference compound] | 2.463 ± 0.159 ×10^6 cpm · m · 10^−6 PMNLs | – | – | – | – | 1.27 times | – | 24% | 30% | 48% | 23.87% | – | –
3 | OC[C@H](Cc1cccc(O)c1)[C@H](CO)Cc1cccc(O)c1 [ED, enterodiol] | 1.073 ± 0.048 ×10^6 cpm · m · 10^−6 PMNLs | 82% | 96% | 95% | 94.2% | 5.02 times | 3.95 times | – | – | – | – | – | –
4 | COc1cc(C[C@@H](CO)[C@H](CO)Cc2ccc(O)c(OC)c2)ccc1O [SECO, secoisolariciresinol] | 0.878 ± 0.023 ×10^6 cpm · m · 10^−6 PMNLs | – | – | – | – | 4.86 times | 3.82 times | 78% | 93% | 99.5% | 91.2% | 100% | –
5 | Cc1c(C)c2c(c(C)c1OP(=O)(O)O)CC[C@@](C)(CCC[C@H](C)CCC[C@H](C)CCCC(C)C)O2 [vitamin E, alpha-tochopherol phosphate, reference compound] | – | – | – | – | – | – | – | – | 17% | 88% | 18.75% | 97% | increase in the PMNL-CL

— patent US6486126B1, “Antioxidant activity in SDG metabolites” (University of Saskatchewan Technologies Incorporated, priority 1999, dated 2002)
